Consider 35 compounds from the Kinase Knowledgebase extract (Sharma et al. 2016).

The target in assay [1] is EGFR (UniProt P00533).
A further assay has as its target EGFR (Hamster) (UniProt P00533). The following applies: for IC50: er22.
Assay [2] has as its target EGFR (UniProt P00533). This is another data set of the same source.

Where “and” joins values, the source holds several entries; their conditions need not be identical. Identical values can stand only once.

As a reminder, the IC50 is the midpoint of a concentration-inhibition curve. High values mean a need for much substance, low ones inhibition by little substance. In general, inhibition refers to the relative decrease from the control value, in per cent. Low values mean a response near the control, high ones a response far below the control.

Chain of EGFR (Hamster) (P00533 whole entry, looked up): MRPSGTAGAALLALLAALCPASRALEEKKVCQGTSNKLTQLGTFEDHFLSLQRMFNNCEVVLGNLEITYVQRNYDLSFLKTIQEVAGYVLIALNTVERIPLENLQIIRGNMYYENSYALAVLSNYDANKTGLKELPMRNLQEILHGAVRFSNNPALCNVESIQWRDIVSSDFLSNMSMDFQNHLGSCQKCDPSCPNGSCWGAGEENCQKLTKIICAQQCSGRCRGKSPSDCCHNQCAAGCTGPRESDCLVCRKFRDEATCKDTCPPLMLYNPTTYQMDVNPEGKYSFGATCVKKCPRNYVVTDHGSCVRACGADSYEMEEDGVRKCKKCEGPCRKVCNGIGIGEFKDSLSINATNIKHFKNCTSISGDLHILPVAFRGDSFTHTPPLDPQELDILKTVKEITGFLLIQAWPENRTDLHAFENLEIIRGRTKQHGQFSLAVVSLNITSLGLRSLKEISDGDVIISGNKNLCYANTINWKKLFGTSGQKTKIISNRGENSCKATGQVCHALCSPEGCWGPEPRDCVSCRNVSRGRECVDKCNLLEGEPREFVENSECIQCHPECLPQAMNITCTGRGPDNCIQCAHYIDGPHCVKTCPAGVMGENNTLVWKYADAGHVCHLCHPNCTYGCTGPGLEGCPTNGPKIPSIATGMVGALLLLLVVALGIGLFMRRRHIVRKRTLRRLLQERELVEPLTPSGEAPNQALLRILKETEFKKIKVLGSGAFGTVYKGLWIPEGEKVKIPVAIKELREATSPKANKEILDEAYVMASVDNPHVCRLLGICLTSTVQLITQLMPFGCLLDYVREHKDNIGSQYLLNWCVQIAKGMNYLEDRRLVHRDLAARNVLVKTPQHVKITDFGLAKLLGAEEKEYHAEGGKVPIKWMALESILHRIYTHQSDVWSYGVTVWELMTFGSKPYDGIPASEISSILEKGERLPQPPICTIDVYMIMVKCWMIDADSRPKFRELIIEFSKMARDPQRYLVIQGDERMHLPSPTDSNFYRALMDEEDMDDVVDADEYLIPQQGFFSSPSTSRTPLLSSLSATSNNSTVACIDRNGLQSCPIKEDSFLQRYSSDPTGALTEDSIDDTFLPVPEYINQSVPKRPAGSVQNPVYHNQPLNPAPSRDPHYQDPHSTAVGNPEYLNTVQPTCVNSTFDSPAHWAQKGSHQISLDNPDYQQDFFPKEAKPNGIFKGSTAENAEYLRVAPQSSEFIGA
Chain of EGFR (P00533 whole entry, looked up): as above

Turning to `CC(O)c1cccc(NCc2cc(O)ccc2O)c1` (stereo not given), the concentration for half-maximal inhibition (IC50) is 1.6 µM on EGFR [1] and over 20 µM in the assay with EGFR (Hamster).

Consider `O=C(c1ccccc1)c1cccc(NCc2cc(O)ccc2O)c1`, for which the 50% inhibitory concentration (IC50) against EGFR [1] was 0.8 µM; with EGFR (Hamster), 5 µM.

As for `CC(C)(C)CC(C)(C)NC(=O)c1cc(NCc2cc(O)ccc2O)ccc1O`, the values for the 50% inhibitory concentration (IC50) against EGFR [1], at EGFR [2] and in the assay with EGFR (Hamster) were 0.22 µM, 0.3 µM and 9 µM, respectively.

Consider `CC(=O)c1cc(NCc2cc(O)ccc2O)ccc1O`, for which the IC50 was 0.34 µM on EGFR [1] and over 10 µM with EGFR (Hamster).

For the compound `O=C(Cc1ccccc1)c1cccc(NCc2cc(O)ccc2O)c1O`, the IC50 at EGFR [1] is 2 µM; with EGFR (Hamster), 4.8 µM.

On to `CC(=O)c1cccc(NCc2cc(O)ccc2O)c1`, for which the values for the IC50 against EGFR [1] and with EGFR (Hamster) were 1.3 µM and 12 µM, respectively.

`CC(COCc1cccc(NCc2cc(O)ccc2O)c1)CC(C)(C)C` (stereo not given): the results for the IC50 at EGFR [1] and with EGFR (Hamster) were over 10 µM and 2.5 µM, respectively.

With `CCCCCCCCCCCCCCCCC(=O)Oc1ccc(NCc2cc(O)ccc2O)cc1C(=O)NCc1ccccc1`, the IC50 against EGFR [1] is 1.5 µM. In the assay with EGFR (Hamster) (er22, dose or concentration not given here), this compound had an inhibition of 20%.

On to `Oc1ccc(O)c(CNc2cccc(C(O)c3ccccc3)c2)c1` (stereo not given), for which the half-maximal inhibitory concentration (IC50) against EGFR [1] was determined as 1.8 µM; in the assay with EGFR (Hamster), 20 µM.

For the compound `CC(CC(=O)c1cc(NCc2cc(O)ccc2O)ccc1O)CC(C)(C)C` (stereo not given), the IC50 turned out to be 0.37 µM on EGFR [1] and 2 µM in the assay with EGFR (Hamster).

For the compound `CC(COCc1cc(NCc2cc(O)ccc2O)ccc1O)CC(C)(C)C` (stereo not given), the IC50 against EGFR [1] stood at 10 µM; with EGFR (Hamster), 2 µM.

In the case of `Oc1ccc(O)c(CNc2ccc(O)c(COCc3ccccc3)c2)c1`, the IC50 is 0.8 µM against EGFR [1] and over 10 µM with EGFR (Hamster).

For `Oc1ccc(O)c(CNc2ccc(O)c(C(=S)NCc3ccccc3)c2)c1`, the concentration for half-maximal inhibition (IC50) against EGFR [1] was 0.15 µM; with EGFR (Hamster) it was over 5 µM.

`CC(C)c1ccccc1NC(=O)c1cc(NCc2cc(O)ccc2O)ccc1O`: the IC50 on EGFR [1] is 0.12 µM; in the assay with EGFR (Hamster) it was over 10 µM.

On to `CC(C)c1ccc(NC(=O)c2cc(NCc3cc(O)ccc3O)ccc2O)cc1`, for which the IC50 against EGFR [1] was 0.15 µM; with EGFR (Hamster), over 10 µM.

In the case of `CC(CNC(=O)c1cc(NCc2cc(O)ccc2O)ccc1O)CC(C)(C)C` (stereo not given), the IC50 against EGFR [1] came out at 0.8 µM; with EGFR (Hamster), 6 µM.

As to `O=C(NCc1ccccc1)c1cc(NCc2cc(O)ccc2O)ccc1O`, the IC50 was 0.02 µM and 0.038 µM on EGFR [1]; 0.04 µM against EGFR [2]; 6 µM and 7 µM with EGFR (Hamster).

`N#Cc1cc(NCc2cc(O)ccc2O)ccc1O`: the IC50 is 0.19 µM against EGFR [1] and over 10 µM with EGFR (Hamster).

Take `COc1ccc(NCc2cc(O)ccc2O)cc1COCC(C)CC(C)(C)C` (stereo not given): the IC50 on EGFR [1] worked out at 20 µM; in the assay with EGFR (Hamster), 0.8 µM.

Turning to `CN(Cc1ccccc1)C(=O)c1cc(NCc2cc(O)ccc2O)ccc1O`, the IC50 is 0.55 µM against EGFR [1] and over 10 µM with EGFR (Hamster).

Take `Oc1ccc(O)c(CNc2cccc(COCc3ccccc3)c2)c1`: the IC50 on EGFR [1] is 0.95 µM; in the assay with EGFR (Hamster) it was 2.5 µM.

Regarding `OCc1cc(NCc2cc(O)ccc2O)ccc1O`, the IC50 at EGFR [1] was found to be 2 µM; in the assay with EGFR (Hamster), 12 µM.

At EGFR [2], `CC(COC(=O)c1cc(NCc2cc(O)ccc2O)ccc1O)CC(C)(C)C` (stereo not given) registered a 50% inhibitory concentration (IC50) of at least 10 µM.

Consider `O=C(c1ccccc1)c1cc(NCc2cc(O)ccc2O)ccc1O`, for which the IC50 came to 0.3 µM at EGFR [1] and 10 µM with EGFR (Hamster).

As for `CC(CSCc1cc(NCc2cc(O)ccc2O)ccc1O)CC(C)(C)C` (stereo not given), the IC50 on EGFR [1] amounted to 1.9 µM; in the assay with EGFR (Hamster) it was 5 µM.

Turning to `O=C(CCc1ccccc1)c1c(O)cccc1NCc1cc(O)ccc1O`, the IC50 at EGFR [1] is 5 µM; with EGFR (Hamster), 4 µM.

Turning to `CC(NC(=O)c1cc(NCc2cc(O)ccc2O)ccc1O)c1ccccc1` (stereo not given), the IC50 against EGFR [1] worked out at 0.07 µM; with EGFR (Hamster), 10 µM.

For the compound `O=C(CCc1ccccc1)c1cc(NCc2cc(O)ccc2O)ccc1O`, the results for the IC50 against EGFR [1] and in the assay with EGFR (Hamster) were 0.16 µM and 6.5 µM, respectively.

Consider `Oc1ccc(O)c(CNc2ccc(O)c(C(O)c3ccccc3)c2)c1` (stereo not given), for which the half-maximal inhibitory concentration (IC50) at EGFR [1] was found to be 1.3 µM; with EGFR (Hamster) it was 8.2 µM.

Consider `Oc1ccc(O)c(CNc2ccc(O)c(COc3ccccc3)c2)c1`, for which the half-inhibitory concentration (IC50) at EGFR [1] is 0.7 µM; in the assay with EGFR (Hamster), over 10 µM.

As to `O=C(Nc1ccccc1)c1cc(NCc2cc(O)ccc2O)ccc1O`, the IC50 against EGFR [1] is 0.02 µM; on EGFR [2] it was 0.09 µM; in the assay with EGFR (Hamster) it was 10 µM.

`O=C(OCCCc1ccccc1)c1cc(NCc2cc(O)ccc2O)ccc1O` came in with an IC50 in the assay with EGFR (Hamster) of 2.25 µM.

Take `COC(=O)[C@H](Cc1ccccc1)NC(=O)c1cc(NCc2cc(O)ccc2O)ccc1O`: the IC50 was 0.54 µM against EGFR [1] and 10 µM with EGFR (Hamster).

As for `O=C(Cc1ccccc1)c1cc(NCc2cc(O)ccc2O)ccc1O`, the 50% inhibitory concentration (IC50) is 0.06 µM on EGFR [1] and 10 µM with EGFR (Hamster).

For `CC(CC(=O)c1cccc(NCc2cc(O)ccc2O)c1O)CC(C)(C)C` (stereo not given), the inhibition against EGFR [1] (concentration not given here) was 24%.
